Test results published in ChEMBL document CHEMBL1149867, “Salinipyrones and pacificanones, mixed-precursor polyketides from the marine actinomycete Salinispora pacifica” (2008).

Tested on: Splenocyte
Assay: Inhibition of IL5 production in mouse splenocyte model of allergic inflammation at 10 ug/ml
Type: functional

## CC[C@@H](O)[C@@H](C)/C=C(C)/C=C/c1oc(=O)c(C)c(O)c1C [SALINIPYRONE A]
  inhibition at 10 µg/mL: 50%
